The values below are quoted from earlier work in patent US20240401031A1, “Platform Using iPSC-Derived Cardiomyocytes Carrying Gene Variants as Models of Cardiac Disease and Drug-Response” (SRI INTERNATIONAL, priority 2021, published 2024).

The conditions of the data set: source CredibleMeds.
With `COc1ccc(CN2C3CC2CN(c2ccc(-c4cc(OCC(C)(C)O)cn5ncc(C#N)c45)cn2)C3)cn1` [Selpercatinib], the “Risk (Torsade de Pointes)” value is reported as “(PR)”.
Consider `CN(C)CCC=C1c2ccccc2COc2ccccc21` [Doxepin], for which the “Risk (Torsade de Pointes)” value is on record as “(CR)”.
Consider `NC(=O)C1(N2CCCCC2)CCN(CCCC(=O)c2ccc(F)cc2)CC1` [Pipamperone], for which the “Risk (Torsade de Pointes)” value is given as “(PR)”.
`CC(C)Oc1ccc(-c2nc(-c3cccc4c3CC[C@@H]4NCCO)no2)cc1C#N` [Ozanimod]: the “Risk (Torsade de Pointes)” value is given as “(PR)”.
In the case of `CCN(CCO)CCCC(C)Nc1ccnc2cc(Cl)ccc12` (stereo not shown) [Hydroxychloroquine], the “Risk (Torsade de Pointes)” value was “(KR)”.
Consider `FC(F)(F)C(F)(F)C(F)(F)F` [Perflutren], for which the “Risk (Torsade de Pointes)” value is recorded as “(PR)”.
On to `C=C/C=C/C[C@@H](C)[C@@H](O)[C@H]1C(=O)N[C@@H](CC)C(=O)N(C)CC(=O)N(C)[C@@H](CC(C)C)C(=O)N[C@@H](C(C)C)C(=O)N(C)[C@@H](CC(C)C)C(=O)N[C@@H](C)C(=O)N[C@H](C)C(=O)N(C)[C@@H](CC(C)C)C(=O)N(C)[C@@H](CC(C)C)C(=O)N(C)[C@@H](C(C)C)C(=O)N1C` [Voclosporin], for which the “Risk (Torsade de Pointes)” value is “(PR)”.
Take `C=CC[C@@H]1/C=C(\C)C[C@H](C)C[C@H](OC)[C@H]2O[C@@](O)(C(=O)C(=O)N3CCCC[C@H]3C(=O)O[C@H](/C(C)=C/[C@@H]3CC[C@@H](O)[C@H](OC)C3)[C@H](C)[C@@H](O)CC1=O)[C@H](C)C[C@@H]2OC` [Tacrolimus]: the “Risk (Torsade de Pointes)” value is on record as “(PR)”.
In the case of `CC[C@H](O)C(C[C@H](C)N(C)C)(c1ccccc1)c1ccccc1` [Levomethadyl], the “Risk (Torsade de Pointes)” value was “(KR)”.
On to `COc1cc(C(C)=O)ccc1OCCCN1CCC(c2noc3cc(F)ccc23)CC1` [Iloperidone], for which the “Risk (Torsade de Pointes)” value was “(PR)”.
On to `CCC(C)n1ncn(-c2ccc(N3CCN(c4ccc(OCC5COC(Cn6cncn6)(c6ccc(Cl)cc6Cl)O5)cc4)CC3)cc2)c1=O` (stereo not shown) [Itraconazole], for which the “Risk (Torsade de Pointes)” value was “(CR)”.
Regarding `CC(O)(CS(=O)(=O)c1ccc(F)cc1)C(=O)Nc1ccc(C#N)c(C(F)(F)F)c1` (stereo not shown) [Bicalutamide], the “Risk (Torsade de Pointes)” value is listed as “(PR)”.
In the case of `O=C(CCCCCCC(=O)Nc1ccccc1)NO` [Vorinostat], the “Risk (Torsade de Pointes)” value is “(PR)”.
For the molecule `CN(C)CCCN1c2ccccc2Sc2cccnc21` [Prothipendyl], the “Risk (Torsade de Pointes)” value is “(PR)”.
As to `CN1CCc2cccc3c2[C@H]1Cc1ccc(O)c(O)c1-3` [Apomorphine], the “Risk (Torsade de Pointes)” value was “(PR)”.
For the molecule `Cc1cc(C(C)(C)C)c(O)c(C)c1CC1=NCCN1` [Oxymetazoline], the “Risk (Torsade de Pointes)” value was “(SR)”.
In the case of `CN/C(=N/CCSCc1nc[nH]c1C)NC#N` [Cimetidine], the “Risk (Torsade de Pointes)” value was “(CR)”.
Consider `[2H]C([2H])([2H])Oc1cc2c(cc1OC([2H])([2H])[2H])C1CC(=O)C(CC(C)C)CN1CC2` (stereo not shown) [Deutetrabenazine], for which the “Risk (Torsade de Pointes)” value was “(PR)”.
Regarding `NS(=O)(=O)c1cc2c(cc1Cl)NCNS2(=O)=O` [Hydrochlorothiazide], the “Risk (Torsade de Pointes)” value is on record as “(CR)”.
Consider `CN1CCN(C2=Nc3ccccc3Sc3ccc(Cl)cc32)CC1` [Clotiapine], for which the “Risk (Torsade de Pointes)” value is reported as “(PR)”.
With `CC[C@H]1OC(=O)[C@H](C)[C@@H](O[C@H]2C[C@@](C)(OC)[C@@H](O)[C@H](C)O2)[C@H](C)[C@@H](O[C@@H]2O[C@H](C)C[C@H](N(C)C)[C@H]2O)[C@](C)(O)C[C@@H](C)/C(=N\OCOCCOC)[C@H](C)[C@@H](O)[C@]1(C)O` [Roxithromycin], the “Risk (Torsade de Pointes)” value is recorded as “(KR)”.
In the case of `O=C1[O][Pt]2([NH][C@@H]3CCCC[C@H]3[NH]2)[O]C1=O` [Oxaliplatin], the “Risk (Torsade de Pointes)” value was “(KR)”.
Take `CONC(=O)Nc1ccc(-c2sc3c(c2CN(C)C)c(=O)n(-c2ccc(OC)nn2)c(=O)n3Cc2c(F)cccc2F)cc1` [Relugolix]: the “Risk (Torsade de Pointes)” value is “(PR)”.
As for `CNC(=O)c1ccc(N2C(=S)N(c3cnc(C#N)c(C(F)(F)F)c3)C(=O)C23CCC3)cc1F` [Apalutamide], the “Risk (Torsade de Pointes)” value is recorded as “(PR)”.
Regarding `CC(C)COCC(CN(Cc1ccccc1)c1ccccc1)N1CCCC1` (stereo not shown) [Bepridil], the “Risk (Torsade de Pointes)” value is recorded as “(KR)”.
Regarding `[As]` [Arsenic], the “Risk (Torsade de Pointes)” value is given as “(KR)”.
Turning to `CC(CCc1ccc(O)cc1)NCCc1ccc(O)c(O)c1` (stereo not shown) [Dobutamine], the “Risk (Torsade de Pointes)” value is on record as “(SR)”.
`COc1cc2nc(N(C)CCCNC(=O)C3CCCO3)nc(N)c2cc1OC` (stereo not shown) [Alfuzosin]: the “Risk (Torsade de Pointes)” value is listed as “(PR)”.
Take `CCOC(=O)C1=C(C)NC(C)=C(C(=O)OCC)C1c1ccccc1/C=C/C(=O)OC(C)(C)C` [Lacidipine]: the “Risk (Torsade de Pointes)” value is reported as “(PR)”.
Take `CNCC[C@@H](Oc1ccccc1C)c1ccccc1` [Atomoxetine]: the “Risk (Torsade de Pointes)” value is on record as “(PR)”.
In the case of `CN(C)CCCN1c2ccccc2Sc2ccc(Cl)cc21` [Chlorpromazine], the “Risk (Torsade de Pointes)” value is “(KR)”.
Consider `CCNC(C)Cc1cccc(C(F)(F)F)c1` (stereo not shown) [Fenfluramine], for which the “Risk (Torsade de Pointes)” value is on record as “(SR)”.
As to `CCN(CC)CCCC(C)Nc1ccnc2cc(Cl)ccc12` (stereo not shown) [Chloroquine], the “Risk (Torsade de Pointes)” value is recorded as “(KR)”.
As to `Cc1cccc([C@H](C)c2cnc[nH]2)c1C` [Dexmedetomidine], the “Risk (Torsade de Pointes)” value is given as “(PR)”.
With `CN[C@H](C)Cc1ccccc1` [Levomethamphetamine], the “Risk (Torsade de Pointes)” value is “(SR)”.
As for `CCN(CC)CCNC(=O)c1cc(Cl)c(N)cc1OC` [Metoclopramide], the “Risk (Torsade de Pointes)” value is reported as “(CR)”.
On to `CCC(=O)C(C[C@@H](C)N(C)C)(c1ccccc1)c1ccccc1` [Levomethadone], for which the “Risk (Torsade de Pointes)” value is given as “(PR)”.
`Cl.Cl.OCCN1CCN(CCC=C2c3ccccc3Sc3ccc(C(F)(F)F)cc32)CC1` (mixture of isomers) [Flupentixol]: the “Risk (Torsade de Pointes)” value is recorded as “(PR)”.
As for `O=C1CN2Cc3c(ccc(Cl)c3Cl)N=C2N1` [Anagrelide], the “Risk (Torsade de Pointes)” value is “(KR)”.
Consider `COc1ccc(OC)c(C(O)CNC(=O)CN)c1` (stereo not shown) [Midodrine], for which the “Risk (Torsade de Pointes)” value is recorded as “(SR)”.
Turning to `COc1cc2nccc(Oc3ccc(NC(=O)C4(C(=O)Nc5ccc(F)cc5)CC4)cc3)c2cc1OC` [Cabozantinib], the “Risk (Torsade de Pointes)” value is recorded as “(PR)”.
On to `COC(=O)N[C@@H](C)CNc1nccc(-c2cn(C(C)C)nc2-c2cc(Cl)cc(NS(C)(=O)=O)c2F)n1` [Encorafenib], for which the “Risk (Torsade de Pointes)” value is given as “(PR)”.
For the molecule `C[C@H]1NCc2cc(-c3ccc4c(=O)c(C(=O)O)cn(C5CC5)c4c3OC(F)F)ccc21` [Garenoxacin], the “Risk (Torsade de Pointes)” value is “(CR)”.
With `CC(CN(C)C)CN1c2ccccc2Sc2ccc(C#N)cc21` (stereo not shown) [Cyamemazine], the “Risk (Torsade de Pointes)” value was “(PR)”.
For `Cc1nccn1CC1CCc2c(c3ccccc3n2C)C1=O` (stereo not shown) [Ondansetron], the “Risk (Torsade de Pointes)” value is reported as “(KR)”.
Regarding `O=C1CCc2cc(OCCCCc3nnnn3C3CCCCC3)ccc2N1` [Cilostazol], the “Risk (Torsade de Pointes)” value was “(KR)”.
On to `OCCOCCN1CCN(C(c2ccccc2)c2ccc(Cl)cc2)CC1` (stereo not shown) [Hydroxyzine], for which the “Risk (Torsade de Pointes)” value was “(CR)”.
As to `Cc1cccc(C)c1NC(=O)CC12CCCN1CCC2` [Pilsicainide], the “Risk (Torsade de Pointes)” value is “(PR)”.
As to `C[C@]12CC[C@H](O)CC1=CC[C@@H]1[C@@H]2CC[C@]2(C)C(c3cccnc3)=CC[C@@H]12` [Abiraterone], the “Risk (Torsade de Pointes)” value is listed as “(CR)”.
